The values below come from US20230223113A1, “Methods and Systems for Rapid Antimicrobial Susceptibility Tests” (The Regents of the University of California, priority 2020, published 2023).

Where a name gives a salt, the structure may show the parent alone.

Assay [1] deals with Pseudomonas aeruginosa (strain PA14 wild type). Put plainly: Dose-response growth curves (OD600 after 24 h) to identify the minimum inhibitory concentration. The format is cell-based. The note with it: for MIC: Pseudomonas aeruginosa, P. aeruginosa PA14, the stated concentration is 'just below' the MIC. As for the experimental part: (§1) Optical density at 600 nm (OD600) to identify the minimum inhibitory concentration (MIC) of A) carbenicillin, B) rifampicin, and C) gentamicin for Pseudomonas aeruginosa, and D) gentamicin for Escherichia coli in accordance with an embodiment is illustrated in FIGS. 5A-5D. The P. aeruginosa strain, PA14 used in some embodiments has differing susceptibility to carbenicillin [+C] and rifampicin [+R]. Several embodiments refer to the antibiotic treatments that are performed with 50 μg/mL and 400 μg/mL of carbenicillin and rifampicin, respectively as the AST dataset. These concentrations are just below the respective minimum inhibitory concentrations (MICs) for these antibiotics in P. aeruginosa, as shown in FIGS. 5A and 5B. OD600 of a P. aeruginosa cell culture at indicated growth times after adjustment to OD at 0.5 at 0 h, A) without antibiotic treatment, B) with 50 μg/mL carbenicillin introduced at 0 h, and C) with 400 μg/mL rifampicin introduced at 0 h in accordance with an embodiment of the invention is illustrated in FIGS. 6A-6C.
Pseudomonas aeruginosa (strain PA14 wild type) and Escherichia coli (strain MC4100, K-12, F-araD139Δ(argF-lac)U169 rspL150 relA1 fIbB5301 fruA25 deoC1 ptsF25) cultures were obtained by first streaking from a frozen culture stock onto LB Lennox agar (IBI Scientific) plates and incubated at 37° C. for 24 h. Individual colonies from these plates were used to inoculate 100 mL of LB in triplicate, and subsequently grown for 18 h at 37° C. and shaking at 230 rpm. The 18 h cultures were centrifuged at 5000 rpm for 5 minutes, then resuspended in fresh LB to reach an optical density at 600 nm (OD600) of 0.50 as measured by a BioChrom Colourwave CO7500 Colorimeter.
Dose-Response Curves: Carbenicillin disodium salt, gentamicin sulfate, and rifampicin stock solutions were prepared to a final concentration of 10 mg/mL in water for the former two and 20% (v/v) DMSO/H2O for the latter. These stock solutions were added into 180 μL of E. coli or P. aeruginosa resuspension in a 96-well plate such that 9 separate 10-fold dilutions of each antibiotic starting at 1000 μg/mL were achieved. Vehicle controls using pure water for carbenicillin and gentamicin and 20% (v/v) DMSO/H2O for rifampicin were also created in the same 96-well plate. These plates were then incubated at 37° C. for 24 h with 230 rpm shaking, after which OD600 measurements were taken with a SpectraMax M2 Plate Reader.

The test system of assay [2] is P. aeruginosa cell culture. Nature of the assay: OD600 of cell culture over time of antibiotic exposure after adjustment to OD 0.5. In kind it is cell-based, Pseudomonas aeruginosa. The note with it: 50 μg/mL carbenicillin, about 2 hour exposure. How it is done: as §1, with “OD600 of a P. aeruginosa cell culture at indicated growth times after adjustment to OD at 0.5 at 0 h, A) without antibiotic treatment, B) with 50 μg/mL carbenicillin introduced at 0 h, and C) with 400 μg/mL rifampicin introduced at 0 h in accordance with an embodiment of the invention is illustrated in FIGS. 6A-6C.” left out
Pseudomonas aeruginosa (strain PA14 wild type) and Escherichia coli (strain MC4100, K-12, F-araD139Δ(argF-lac)U169 rspL150 relA1 fIbB5301 fruA25 deoC1 ptsF25) cultures were obtained by first streaking from a frozen culture stock onto LB Lennox agar (IBI Scientific) plates and incubated at 37° C. for 24 h. […] The 18 h cultures were centrifuged at 5000 rpm for 5 minutes, then resuspended in fresh LB to reach an optical density at 600 nm (OD600) of 0.50 as measured by a BioChrom Colourwave CO7500 Colorimeter. […]

Assay [3] deals with P. aeruginosa lysate. Nature of the assay: SERS spectra of cell lysate after antibiotic exposure, VAE latent space analysis. In kind it is cell-based, Pseudomonas aeruginosa. As for the experimental part:
The VAE space from analysis of the AST dataset in accordance with many embodiments provide clustering of the different treatment classes. VAE space of AST spectra from untreated [−−] P. aeruginosa lysate (0.5 h/2 h), 50 μg/mL carbenicillin treated [+C] P. aeruginosa lysate (0.5 h/2 h), 400 μg/mL rifampicin treated [+R] P. aeruginosa lysate (0.5 h/2 h) in accordance with an embodiment of the invention is illustrated in FIG. 7A. […] Some embodiments provide that larger relative VAE 1 values can be observed for 30 minute treatment times for all treatment classes as compared to 2 hour exposure. This is consistent with OD600 measurements indicating cell recovery after 2 hour in FIGS. 6A-6C.
Many embodiments provide VAE performance on differentiating spectra from multiple bacterial species, a different antibiotic, time points, and dosages. SERS spectra from cellular lysate with varying dose and temporal response of P. aeruginosa and E. coli when exposed to gentamicin are analyzed similarly as the AST dataset in several embodiments. When analyzing the SERS spectra from E. coli and P. aeruginosa with the VAE method, differentiation of P. aeruginosa lysate data at concentrations at about 0.1 μg/mL, an order of magnitude below the MIC, can be observed in accordance with some embodiments. […]

The subject of assay [4] is E. coli lysate. The description is as above. In kind it is cell-based, Escherichia coli. How it is done: Many embodiments provide VAE performance on differentiating spectra from multiple bacterial species, a different antibiotic, time points, and dosages. SERS spectra from cellular lysate with varying dose and temporal response of P. aeruginosa and E. coli when exposed to gentamicin are analyzed similarly as the AST dataset in several embodiments. When analyzing the SERS spectra from E. coli and P. aeruginosa with the VAE method, differentiation of P. aeruginosa lysate data at concentrations at about 0.1 μg/mL, an order of magnitude below the MIC, can be observed in accordance with some embodiments. FIG. 9A illustrates VAE latent space analysis of SERS spectra of dose response of P. aeruginosa with analysis of 0, 0.1, 0.5, 1, and 10 μg/mL gentamicin dosed lysate respectively in accordance with an embodiment. In several embodiments, lysate from P. aeruginosa exposed to 10 μg/mL gentamicin (10×MIC) can be analyzed with VAE method and differentiated from control data in the VAE space at about 20 minute after initial exposure. The short temporal response time in accordance with some embodiments is much earlier than reported 2 hour response time for SERS AST. FIG. 9B illustrates VAE latent spaces of temporal response of P. aeruginosa with lysate processed after 0, 5, 10, 20, and 40 minutes of 10 μg/mL gentamicin dosage respectively in accordance with an embodiment. […]

The MIC is the least concentration at which growth counts as inhibited.

As for `CO[C@H]1/C=C/O[C@@]2(C)Oc3c(C)c(O)c4c(O)c(c(/C=N/N5CCN(C)CC5)c(O)c4c3C2=O)NC(=O)/C(C)=C\C=C\[C@H](C)[C@H](O)[C@@H](C)[C@@H](O)[C@@H](C)[C@H](OC(C)=O)[C@@H]1C` [rifampicin], the MIC in assay [1] was greater than 400 mg/L.
`CC1(C)S[C@@H]2[C@H](NC(=O)C(C(=O)O)c3ccccc3)C(=O)N2[C@H]1C(=O)O` (stereo partly drawn) [carbenicillin, Carbenicillin disodium salt] registered an MIC in assay [1] greater than 50 mg/L. For the same compound, the “growth inhibition over the time of exposure (OD600)” value in assay [2] was “does not exhibit any significant growth inhibition”.
Regarding gentamicin sulfate, the “dose as a multiple of the MIC” value in assay [1] (10 μg/mL gentamicin, P. aeruginosa) is recorded as 10 ×MIC. The “resistance of P. aeruginosa (from growth curves, FIGS. 5A-5D)” value in assay [1] (P. aeruginosa) is recorded as “evident resistance”. Also, the “time after initial exposure at which lysate is differentiated from control in VAE space” value in assay [3] (10 μg/mL gentamicin) was “about 20 minute”. For the same compound, the “antibiotic concentration at which lysate data are differentiated from control in VAE space” value in assay [3] (gentamicin dose response 0, 0.1, 0.5, 1, 10 μg/mL, an order of magnitude below the MIC) is “about 0.1 μg/mL”. Moreover, the “time after initial exposure at which discernable clustering appears in VAE space” value in assay [4] (10 μg/mL gentamicin) is recorded as “about 10 minute”. In addition, in assay [4] (gentamicin dose response 0, 0.1, 0.5, 1, 10 μg/mL), the “antibiotic concentration at which lysate data are differentiated from control treatment in VAE space” value was no more than 0.1 µg/mL.
